Measured values taken from the kinase profiling compilation of Christmann-Franck et al. (2016).
Where “and” joins values, the source holds several entries; their conditions need not be identical. Equal entries are not always repeated.

What was measured:
Assay in all cases: Caliper, Mobility shift assay off-chip
ABL1 (human) = ABL1 (human) (UniProt P00519)
[1] = tested on: ABL1 (human), P00519 [T315I]
ABL2 (human) = ABL2 (human) (UniProt P42684)
AURKC (human) = AURKC (human) (UniProt Q9UQB9)
BRSK1 (human) = BRSK1 (human) (UniProt Q8TDC3)
CAMK2B (human) = CAMK2B (human) (UniProt Q13554)
CDK2 (human) = CDK2 (human) (UniProt P24941)
CSNK1D (human) = CSNK1D (human) (UniProt P48730)
FGFR4 (human) = FGFR4 (human) (UniProt P22455)
IKBKB (human) = IKBKB (human) (UniProt O14920)
MAP4K4 (human) = MAP4K4 (human) (UniProt O95819)
MAPK14 (human) = MAPK14 (human) (UniProt Q16539)
MARK1 (human) = MARK1 (human) (UniProt Q9P0L2)
NEK2 (human) = NEK2 (human) (UniProt P51955)
PRKCA (human) = PRKCA (human) (UniProt P17252)
PRKCE (human) = PRKCE (human) (UniProt Q02156)
PRKCZ (human) = PRKCZ (human) (UniProt Q05513)
PRKD1 (human) = PRKD1 (human) (UniProt Q15139)
PRKD2 (human) = PRKD2 (human) (UniProt Q9BZL6)
PRKG1 (human) = PRKG1 (human) (UniProt Q13976)
ROCK2 (human) = ROCK2 (human) (UniProt O75116)
RPS6KA2 KD1 KD2 (human) = RPS6KA2 KD1 KD2 (human) (UniProt Q15349)
SGK2 (human) = SGK2 (human) (UniProt Q9HBY8)
TSSK1B (human) = TSSK1B (human) (UniProt Q9BXA7)

Sequence of PRKG1 (human) (Q13976 whole entry, looked up): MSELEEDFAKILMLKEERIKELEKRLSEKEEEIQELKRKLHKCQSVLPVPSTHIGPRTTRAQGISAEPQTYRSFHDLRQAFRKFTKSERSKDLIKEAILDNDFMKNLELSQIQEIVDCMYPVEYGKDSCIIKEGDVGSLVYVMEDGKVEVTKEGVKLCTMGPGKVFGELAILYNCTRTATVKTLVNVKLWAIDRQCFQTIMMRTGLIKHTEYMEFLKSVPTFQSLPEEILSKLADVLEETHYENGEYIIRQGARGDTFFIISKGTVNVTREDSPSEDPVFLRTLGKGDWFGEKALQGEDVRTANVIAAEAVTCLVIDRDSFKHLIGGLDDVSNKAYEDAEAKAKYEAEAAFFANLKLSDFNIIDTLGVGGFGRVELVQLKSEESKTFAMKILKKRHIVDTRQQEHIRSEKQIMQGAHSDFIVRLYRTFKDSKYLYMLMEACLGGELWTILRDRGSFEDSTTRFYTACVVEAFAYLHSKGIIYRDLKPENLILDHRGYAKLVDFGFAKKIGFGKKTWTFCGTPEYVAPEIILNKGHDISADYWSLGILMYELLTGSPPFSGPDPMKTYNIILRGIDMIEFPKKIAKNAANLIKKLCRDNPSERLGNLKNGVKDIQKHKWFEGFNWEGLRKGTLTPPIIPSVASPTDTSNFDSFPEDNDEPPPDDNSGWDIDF
Sequence of CAMK2B (human) (Q13554 whole entry, looked up): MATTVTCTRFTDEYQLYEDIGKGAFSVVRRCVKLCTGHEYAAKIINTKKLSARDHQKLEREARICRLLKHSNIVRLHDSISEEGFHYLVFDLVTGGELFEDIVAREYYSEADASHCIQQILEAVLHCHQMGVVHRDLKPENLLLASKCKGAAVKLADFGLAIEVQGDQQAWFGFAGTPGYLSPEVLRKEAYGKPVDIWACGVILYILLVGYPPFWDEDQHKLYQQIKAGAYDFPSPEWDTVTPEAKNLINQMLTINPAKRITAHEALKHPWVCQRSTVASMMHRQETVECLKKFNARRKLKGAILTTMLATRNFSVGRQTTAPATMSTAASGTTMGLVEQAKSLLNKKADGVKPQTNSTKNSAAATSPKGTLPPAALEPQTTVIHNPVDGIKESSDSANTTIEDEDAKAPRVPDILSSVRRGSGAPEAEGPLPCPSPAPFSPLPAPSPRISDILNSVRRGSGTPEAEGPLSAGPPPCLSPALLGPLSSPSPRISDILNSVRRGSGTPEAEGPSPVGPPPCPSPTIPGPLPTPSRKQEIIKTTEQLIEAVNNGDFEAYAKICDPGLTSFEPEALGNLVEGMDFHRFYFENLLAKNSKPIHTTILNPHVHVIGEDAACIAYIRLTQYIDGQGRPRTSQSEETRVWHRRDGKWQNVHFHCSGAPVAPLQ
Sequence of SGK2 (human) (Q9HBY8 whole entry, looked up): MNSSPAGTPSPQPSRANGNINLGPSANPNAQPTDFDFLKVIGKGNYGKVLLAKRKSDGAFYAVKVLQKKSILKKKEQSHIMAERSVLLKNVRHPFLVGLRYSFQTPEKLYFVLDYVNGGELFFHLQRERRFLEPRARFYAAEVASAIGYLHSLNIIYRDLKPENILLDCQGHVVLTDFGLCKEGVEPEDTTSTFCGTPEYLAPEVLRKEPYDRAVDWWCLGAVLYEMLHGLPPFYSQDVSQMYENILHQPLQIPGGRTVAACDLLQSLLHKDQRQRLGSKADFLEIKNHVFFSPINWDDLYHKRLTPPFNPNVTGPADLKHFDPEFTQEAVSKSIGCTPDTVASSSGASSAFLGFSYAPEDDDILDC
Sequence of IKBKB (human) (O14920 whole entry, looked up): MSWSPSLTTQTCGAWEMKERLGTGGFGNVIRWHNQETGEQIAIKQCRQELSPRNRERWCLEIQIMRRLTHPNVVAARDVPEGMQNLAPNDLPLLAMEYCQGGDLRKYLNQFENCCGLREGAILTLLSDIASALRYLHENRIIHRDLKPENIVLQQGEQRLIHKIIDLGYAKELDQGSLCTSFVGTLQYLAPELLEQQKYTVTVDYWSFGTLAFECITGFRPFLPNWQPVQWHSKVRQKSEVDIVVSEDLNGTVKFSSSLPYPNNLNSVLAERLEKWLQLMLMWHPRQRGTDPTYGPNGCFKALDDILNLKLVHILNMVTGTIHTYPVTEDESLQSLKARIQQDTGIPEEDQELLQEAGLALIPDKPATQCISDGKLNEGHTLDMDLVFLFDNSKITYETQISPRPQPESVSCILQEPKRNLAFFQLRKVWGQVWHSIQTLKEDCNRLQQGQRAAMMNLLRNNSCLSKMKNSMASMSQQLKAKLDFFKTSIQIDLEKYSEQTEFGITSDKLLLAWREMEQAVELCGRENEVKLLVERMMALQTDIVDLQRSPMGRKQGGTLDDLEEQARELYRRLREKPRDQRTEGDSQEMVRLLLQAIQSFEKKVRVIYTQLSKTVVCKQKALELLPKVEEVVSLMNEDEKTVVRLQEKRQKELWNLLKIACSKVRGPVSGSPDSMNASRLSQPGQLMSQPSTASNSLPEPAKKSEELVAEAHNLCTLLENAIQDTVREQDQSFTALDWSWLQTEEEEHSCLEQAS
Sequence of MAPK14 (human) (Q16539 whole entry, looked up): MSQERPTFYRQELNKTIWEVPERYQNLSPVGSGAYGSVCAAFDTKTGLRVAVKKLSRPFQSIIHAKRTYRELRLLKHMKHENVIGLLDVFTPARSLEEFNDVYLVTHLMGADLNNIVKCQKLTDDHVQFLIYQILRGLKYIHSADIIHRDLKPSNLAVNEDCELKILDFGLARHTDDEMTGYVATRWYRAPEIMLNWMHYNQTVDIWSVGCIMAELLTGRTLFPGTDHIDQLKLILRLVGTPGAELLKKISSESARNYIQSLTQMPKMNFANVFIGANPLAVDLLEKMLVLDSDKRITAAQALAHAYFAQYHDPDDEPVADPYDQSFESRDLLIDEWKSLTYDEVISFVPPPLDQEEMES
Sequence of MAP4K4 (human) (O95819 whole entry, looked up): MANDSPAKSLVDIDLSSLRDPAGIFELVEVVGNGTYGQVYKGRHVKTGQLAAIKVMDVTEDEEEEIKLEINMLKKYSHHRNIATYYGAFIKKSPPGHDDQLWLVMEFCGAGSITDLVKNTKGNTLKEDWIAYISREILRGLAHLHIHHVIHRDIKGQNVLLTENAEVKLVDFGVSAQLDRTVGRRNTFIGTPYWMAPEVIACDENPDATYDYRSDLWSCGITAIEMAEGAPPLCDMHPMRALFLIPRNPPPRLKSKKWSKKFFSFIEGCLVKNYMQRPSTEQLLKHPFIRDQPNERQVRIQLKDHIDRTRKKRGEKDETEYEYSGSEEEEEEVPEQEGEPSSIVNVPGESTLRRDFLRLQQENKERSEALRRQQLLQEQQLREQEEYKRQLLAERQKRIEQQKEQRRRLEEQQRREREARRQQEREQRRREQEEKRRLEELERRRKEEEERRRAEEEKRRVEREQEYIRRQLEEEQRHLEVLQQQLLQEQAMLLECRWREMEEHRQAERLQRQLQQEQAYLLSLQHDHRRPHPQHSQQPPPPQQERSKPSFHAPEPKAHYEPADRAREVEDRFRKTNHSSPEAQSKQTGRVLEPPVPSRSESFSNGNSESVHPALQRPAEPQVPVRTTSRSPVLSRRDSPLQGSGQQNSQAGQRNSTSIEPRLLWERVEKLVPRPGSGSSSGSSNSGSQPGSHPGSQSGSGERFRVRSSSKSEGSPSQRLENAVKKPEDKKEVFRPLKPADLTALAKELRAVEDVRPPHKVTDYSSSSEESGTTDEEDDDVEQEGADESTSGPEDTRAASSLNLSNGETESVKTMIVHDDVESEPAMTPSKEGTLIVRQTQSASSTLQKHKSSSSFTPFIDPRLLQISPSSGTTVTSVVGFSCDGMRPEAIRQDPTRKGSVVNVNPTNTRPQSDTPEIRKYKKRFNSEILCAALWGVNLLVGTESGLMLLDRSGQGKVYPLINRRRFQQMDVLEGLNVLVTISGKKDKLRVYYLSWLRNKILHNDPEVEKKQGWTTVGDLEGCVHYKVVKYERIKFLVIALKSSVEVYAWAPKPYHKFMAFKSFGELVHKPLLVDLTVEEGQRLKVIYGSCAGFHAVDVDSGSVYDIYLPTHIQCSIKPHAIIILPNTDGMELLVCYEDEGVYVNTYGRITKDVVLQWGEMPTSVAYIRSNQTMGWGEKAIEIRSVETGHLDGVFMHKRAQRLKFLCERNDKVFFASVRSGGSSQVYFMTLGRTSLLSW
Sequence of PRKCZ (human) (Q05513 whole entry, looked up): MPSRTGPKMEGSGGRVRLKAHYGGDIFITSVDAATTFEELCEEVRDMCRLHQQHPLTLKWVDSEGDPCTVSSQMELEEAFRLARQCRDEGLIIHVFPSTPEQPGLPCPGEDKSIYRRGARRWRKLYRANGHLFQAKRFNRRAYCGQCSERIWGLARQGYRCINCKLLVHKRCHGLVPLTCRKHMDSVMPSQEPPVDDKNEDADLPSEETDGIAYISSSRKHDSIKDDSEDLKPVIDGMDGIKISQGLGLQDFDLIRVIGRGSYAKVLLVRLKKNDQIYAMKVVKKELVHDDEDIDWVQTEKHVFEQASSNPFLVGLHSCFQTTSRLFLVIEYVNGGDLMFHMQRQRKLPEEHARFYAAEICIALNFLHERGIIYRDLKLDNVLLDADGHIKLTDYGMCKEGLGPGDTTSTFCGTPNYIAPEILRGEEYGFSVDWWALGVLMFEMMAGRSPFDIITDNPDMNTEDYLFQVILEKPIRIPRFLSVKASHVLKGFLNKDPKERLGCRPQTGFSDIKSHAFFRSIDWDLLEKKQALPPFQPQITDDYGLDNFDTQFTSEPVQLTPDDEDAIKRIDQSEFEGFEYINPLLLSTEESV
Sequence of AURKC (human) (Q9UQB9 whole entry, looked up): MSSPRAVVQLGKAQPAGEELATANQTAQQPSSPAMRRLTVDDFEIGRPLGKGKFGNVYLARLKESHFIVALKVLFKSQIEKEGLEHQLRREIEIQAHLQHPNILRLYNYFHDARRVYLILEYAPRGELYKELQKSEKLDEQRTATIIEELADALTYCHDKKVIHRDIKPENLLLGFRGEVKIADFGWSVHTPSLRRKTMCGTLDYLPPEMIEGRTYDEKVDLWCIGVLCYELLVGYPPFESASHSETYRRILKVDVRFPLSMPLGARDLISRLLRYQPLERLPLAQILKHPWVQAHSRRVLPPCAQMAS

Cn1cc(-c2cnc3ccc4ccc(CS(=O)(=O)NCC5CCCCN5)cc4c(=O)c3c2)cn1 (stereo unspecified)
inhibition (ABL1 (human); compound 0.1 µM): 23.1%
inhibition (ABL1 (human); compound 1.0 µM): 61.5%
inhibition ([1]; compound 0.1 µM): 3.3%
inhibition (ABL2 (human); compound 0.1 µM): 3.3%
inhibition (AURKC (human); compound 0.1 µM): 20.9%
inhibition (BRSK1 (human); compound 0.1 µM): 2%
inhibition (BRSK1 (human); compound 1.0 µM): 5.2%
inhibition (CAMK2B (human); compound 0.1 µM): 2.1%
inhibition (CDK2 (human); compound 0.1 µM): 1.9%
inhibition (CDK2 (human); compound 1.0 µM): 1.4%
inhibition (CSNK1D (human); compound 0.1 µM): 20.4%
inhibition (CSNK1D (human); compound 1.0 µM): 7.4%
inhibition (FGFR4 (human); compound 0.1 µM): -8.7%
inhibition (IKBKB (human); compound 0.1 µM): 1.9%
inhibition (MAP4K4 (human); compound 0.1 µM): 4.1%
inhibition (MAP4K4 (human); compound 1.0 µM): 15.7%
inhibition (MAPK14 (human); compound 0.1 µM): 3.3%
inhibition (MAPK14 (human); compound 1.0 µM): -2.7%
inhibition (MARK1 (human); compound 0.1 µM): -3.9%
inhibition (MARK1 (human); compound 1.0 µM): 33.5%
inhibition (NEK2 (human); compound 0.1 µM): 2.7%
inhibition (NEK2 (human); compound 1.0 µM): -2.2%
inhibition (PRKCA (human); compound 0.1 µM): -28%
inhibition (PRKCA (human); compound 1.0 µM): -0.1%
inhibition (PRKCE (human); compound 0.1 µM): -9.1%
inhibition (PRKCE (human); compound 1.0 µM): -5.1%
inhibition (PRKCZ (human); compound 0.1 µM): -8%
inhibition (PRKCZ (human); compound 1.0 µM): 1.3%
inhibition (PRKD1 (human); compound 0.1 µM): -8.3%
inhibition (PRKD1 (human); compound 1.0 µM): -1.9%
inhibition (PRKD2 (human); compound 0.1 µM): -3.8%
inhibition (PRKD2 (human); compound 1.0 µM): 15%
inhibition (PRKG1 (human); compound 0.1 µM): -3.8% and -2.5%
inhibition (PRKG1 (human); compound 1.0 µM): -2.7%
inhibition (ROCK2 (human); compound 0.1 µM): 3.6%
inhibition (ROCK2 (human); compound 1.0 µM): -1.6%
inhibition (RPS6KA2 KD1 KD2 (human); compound 0.1 µM): -1.6%
inhibition (RPS6KA2 KD1 KD2 (human); compound 1.0 µM): -5.3%
inhibition (SGK2 (human); compound 0.1 µM): -9%
inhibition (SGK2 (human); compound 1.0 µM): -11.8%
inhibition (TSSK1B (human); compound 0.1 µM): -2.7%

Cn1cc(-c2cnc3ccc4ccc(CS(=O)(=O)CCc5ccccn5)cc4c(=O)c3c2)cn1
inhibition (ABL1 (human); compound 0.1 µM): 0.2%
inhibition (ABL1 (human); compound 1.0 µM): 11.6%
inhibition ([1]; compound 0.1 µM): 7.1%
inhibition ([1]; compound 1.0 µM): 4.4%
inhibition (ABL2 (human); compound 0.1 µM): -5.3%
inhibition (ABL2 (human); compound 1.0 µM): 6.8%
inhibition (AURKC (human); compound 0.1 µM): 4.3%
inhibition (AURKC (human); compound 1.0 µM): 55.5%
inhibition (BRSK1 (human); compound 0.1 µM): -11.7%
inhibition (BRSK1 (human); compound 1.0 µM): 0.3%
inhibition (CAMK2B (human); compound 0.1 µM): 20.2%
inhibition (CDK2 (human); compound 0.1 µM): -6.3%
inhibition (CDK2 (human); compound 1.0 µM): -3.4%
inhibition (CSNK1D (human); compound 0.1 µM): 7.8%
inhibition (CSNK1D (human); compound 1.0 µM): 8.9%
inhibition (FGFR4 (human); compound 0.1 µM): -0.6%
inhibition (FGFR4 (human); compound 1.0 µM): 15.7%
inhibition (IKBKB (human); compound 0.1 µM): 1.4%
inhibition (IKBKB (human); compound 1.0 µM): -1.2%
inhibition (MAP4K4 (human); compound 0.1 µM): -2%
inhibition (MAP4K4 (human); compound 1.0 µM): 10.6%
inhibition (MAPK14 (human); compound 0.1 µM): 5.3%
inhibition (MAPK14 (human); compound 1.0 µM): -2.7%
inhibition (MARK1 (human); compound 0.1 µM): 1.2%
inhibition (MARK1 (human); compound 1.0 µM): -13.9%
inhibition (NEK2 (human); compound 0.1 µM): -5.7%
inhibition (NEK2 (human); compound 1.0 µM): -0.9%
inhibition (PRKCA (human); compound 0.1 µM): 21.9%
inhibition (PRKCA (human); compound 1.0 µM): -3%
inhibition (PRKCE (human); compound 0.1 µM): 6.5%
inhibition (PRKCE (human); compound 1.0 µM): 1.1%
inhibition (PRKCZ (human); compound 0.1 µM): 3.2%
inhibition (PRKCZ (human); compound 1.0 µM): 6.8%
inhibition (PRKD1 (human); compound 0.1 µM): -3.6%
inhibition (PRKD1 (human); compound 1.0 µM): -6.6%
inhibition (PRKD2 (human); compound 0.1 µM): -8.3%
inhibition (PRKD2 (human); compound 1.0 µM): -3.5%
inhibition (PRKG1 (human); compound 0.1 µM): 4.3% and 6.4%
inhibition (PRKG1 (human); compound 1.0 µM): -3.3% and -9.8%
inhibition (ROCK2 (human); compound 0.1 µM): -6.7%
inhibition (ROCK2 (human); compound 1.0 µM): -5.4%
inhibition (RPS6KA2 KD1 KD2 (human); compound 0.1 µM): 6.3%
inhibition (RPS6KA2 KD1 KD2 (human); compound 1.0 µM): 8.8%
inhibition (SGK2 (human); compound 0.1 µM): -0.4%
inhibition (SGK2 (human); compound 1.0 µM): -3.6%
inhibition (TSSK1B (human); compound 0.1 µM): 19.8%
inhibition (TSSK1B (human); compound 1.0 µM): -1.7%

Cn1cc(-c2cnc3ccc4ccc(CS(N)(=O)=O)cc4c(=O)c3c2)cn1
inhibition (ABL1 (human); compound 0.1 µM): 6.9%
inhibition (ABL1 (human); compound 1.0 µM): 22.9%
inhibition ([1]; compound 0.1 µM): 1.4%
inhibition ([1]; compound 1.0 µM): 12.7%
inhibition (AURKC (human); compound 0.1 µM): 27.7%
inhibition (AURKC (human); compound 1.0 µM): 76.2%
inhibition (BRSK1 (human); compound 0.1 µM): 5.6%
inhibition (BRSK1 (human); compound 1.0 µM): 12.5%
inhibition (CAMK2B (human); compound 0.1 µM): -21.3%
inhibition (CAMK2B (human); compound 1.0 µM): -19.3%
inhibition (CDK2 (human); compound 0.1 µM): 1.2%
inhibition (CDK2 (human); compound 1.0 µM): -3.9%
inhibition (CSNK1D (human); compound 0.1 µM): 7.6%
inhibition (CSNK1D (human); compound 1.0 µM): 11.1%
inhibition (FGFR4 (human); compound 0.1 µM): 21.1%
inhibition (FGFR4 (human); compound 1.0 µM): 19.6%
inhibition (IKBKB (human); compound 0.1 µM): -12%
inhibition (IKBKB (human); compound 1.0 µM): 4.2%
inhibition (MAP4K4 (human); compound 0.1 µM): 7.1%
inhibition (MAP4K4 (human); compound 1.0 µM): 1.8%
inhibition (MAPK14 (human); compound 0.1 µM): -13.9%
inhibition (MAPK14 (human); compound 1.0 µM): 6.9%
inhibition (MARK1 (human); compound 0.1 µM): 16.5%
inhibition (MARK1 (human); compound 1.0 µM): 81.8%
inhibition (NEK2 (human); compound 0.1 µM): -1.5%
inhibition (NEK2 (human); compound 1.0 µM): -7.5%
inhibition (PRKCA (human); compound 0.1 µM): 3.1%
inhibition (PRKCE (human); compound 0.1 µM): -4.6%
inhibition (PRKCE (human); compound 1.0 µM): 5.9%
inhibition (PRKCZ (human); compound 0.1 µM): -6.7%
inhibition (PRKCZ (human); compound 1.0 µM): 1%
inhibition (PRKD1 (human); compound 0.1 µM): -5.2%
inhibition (PRKD1 (human); compound 1.0 µM): 0.2%
inhibition (PRKD2 (human); compound 0.1 µM): 7.3%
inhibition (PRKD2 (human); compound 1.0 µM): -2.6%
inhibition (PRKG1 (human); compound 0.1 µM): -0.5% and 2.6%
inhibition (PRKG1 (human); compound 1.0 µM): 9.6% and -5.9%
inhibition (ROCK2 (human); compound 0.1 µM): 3%
inhibition (ROCK2 (human); compound 1.0 µM): 2%
inhibition (RPS6KA2 KD1 KD2 (human); compound 0.1 µM): -0.2%
inhibition (RPS6KA2 KD1 KD2 (human); compound 1.0 µM): 9%
inhibition (SGK2 (human); compound 0.1 µM): -0.9%
inhibition (SGK2 (human); compound 1.0 µM): 23.1%
inhibition (TSSK1B (human); compound 0.1 µM): -0.9%
inhibition (TSSK1B (human); compound 1.0 µM): 1%

O=c1c2cc(CS(=O)(=O)NCc3ccccn3)ccc2ccc2ncc(C3CCNCC3)cc12
inhibition (ABL1 (human); compound 0.01 µM): -1.8%
inhibition (ABL1 (human); compound 0.1 µM): 5.5%
inhibition ([1]; compound 0.01 µM): 19.6%
inhibition ([1]; compound 0.1 µM): -2.4%
inhibition (ABL2 (human); compound 0.01 µM): 4.8%
inhibition (ABL2 (human); compound 0.1 µM): 3.1%
inhibition (AURKC (human); compound 0.01 µM): -15.8%
inhibition (AURKC (human); compound 0.1 µM): 5.6%
inhibition (BRSK1 (human); compound 0.01 µM): 9.9%
inhibition (BRSK1 (human); compound 0.1 µM): -7.5%
inhibition (CAMK2B (human); compound 0.01 µM): 79.2%
inhibition (CAMK2B (human); compound 0.1 µM): -4.6%
inhibition (CDK2 (human); compound 0.01 µM): -0.9%
inhibition (CDK2 (human); compound 0.1 µM): -0.9%
inhibition (CSNK1D (human); compound 0.01 µM): 2%
inhibition (CSNK1D (human); compound 0.1 µM): -2.8%
inhibition (FGFR4 (human); compound 0.01 µM): 12.6%
inhibition (FGFR4 (human); compound 0.1 µM): -18.4%
inhibition (IKBKB (human); compound 0.01 µM): -0.2%
inhibition (IKBKB (human); compound 0.1 µM): 0.6%
inhibition (MAP4K4 (human); compound 0.01 µM): -8.5%
inhibition (MAP4K4 (human); compound 0.1 µM): -10.7%
inhibition (MAPK14 (human); compound 0.01 µM): -1.2%
inhibition (MAPK14 (human); compound 0.1 µM): -6.5%
inhibition (MARK1 (human); compound 0.01 µM): -0.1%
inhibition (MARK1 (human); compound 0.1 µM): -2.9%
inhibition (NEK2 (human); compound 0.01 µM): -2.6%
inhibition (NEK2 (human); compound 0.1 µM): -2.3%
inhibition (PRKCA (human); compound 0.01 µM): 0.2%
inhibition (PRKCA (human); compound 0.1 µM): 1.3%
inhibition (PRKCE (human); compound 0.01 µM): 1.3%
inhibition (PRKCE (human); compound 0.1 µM): -2%
inhibition (PRKCZ (human); compound 0.01 µM): -0.3%
inhibition (PRKCZ (human); compound 0.1 µM): 4.6%
inhibition (PRKD1 (human); compound 0.01 µM): -2.8%
inhibition (PRKD1 (human); compound 0.1 µM): -4.1%
inhibition (PRKD2 (human); compound 0.01 µM): -6.3%
inhibition (PRKD2 (human); compound 0.1 µM): -5.2%
inhibition (PRKG1 (human); compound 0.01 µM): 2% and 2.1%
inhibition (PRKG1 (human); compound 0.1 µM): 3.8% and -4.6%
inhibition (ROCK2 (human); compound 0.01 µM): 5.8%
inhibition (ROCK2 (human); compound 0.1 µM): 8.4%
inhibition (RPS6KA2 KD1 KD2 (human); compound 0.01 µM): -8.9%
inhibition (RPS6KA2 KD1 KD2 (human); compound 0.1 µM): 2%
inhibition (SGK2 (human); compound 0.01 µM): -4.2%
inhibition (SGK2 (human); compound 0.1 µM): 4.7%
inhibition (TSSK1B (human); compound 0.01 µM): 7.3%
inhibition (TSSK1B (human); compound 0.1 µM): -5.2%
